Experiments:
Experiment in all cases: Post-emergence efficacy, glasshouse, evaluated after 13 days
Format in all cases: in vivo
Setaria faberi (SETFA) = settings: Setaria faberi, 312 h; post-emergence application, 500 g/Ha, evaluated after 13 days; read-out: Control of weed species SETFA (100=total damage to plant; 0=no damage to plant)
Method in brief: (§1)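 Damage was rated visually 13 days after treatment on a 0–100 scale, where 100 meant total damage. Plants had been raised for 14 days in soil under glasshouse conditions (24/16 °C, 14 h light, 65% humidity) before spraying with an aqueous dilution of an IF50-based formulation.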

[1] = test system: Euphorbia heterophylla (EPHHL); settings: Euphorbia heterophylla, 312 h; post-emergence application, 500 g/Ha, evaluated after 13 days; read-out: Control of weed species EPHHL (100=total damage to plant; 0=no damage to plant)
Method in brief: as §1

Lolium perenne (LOLPE) = settings: Lolium perenne, 312 h; post-emergence application, 500 g/Ha, evaluated after 13 days; read-out: Control of weed species LOLPE (100=total damage to plant; 0=no damage to plant)
Method in brief: as §1

[2] = test system: Amaranthus palmeri (AMAPA); settings: Amaranthus palmeri, 312 h; post-emergence application, 500 g/Ha, evaluated after 13 days; read-out: Control of weed species AMAPA (100=total damage to plant; 0=no damage to plant)
Method in brief: as §1

[3] = test system: Echinochloa crus-galli (ECHCG); settings: Echinochloa crus-galli, 312 h; post-emergence application, 500 g/Ha, evaluated after 13 days; read-out: Control of weed species ECHCG (100=total damage to plant; 0=no damage to plant)
Method in brief: as §1

[4] = test system: Ipomoea hederacea (IPOHE); settings: Ipomoea hederacea, 312 h; post-emergence application, 500 g/Ha, evaluated after 13 days; read-out: Control of weed species IPOHE (100=total damage to plant; 0=no damage to plant)
Method in brief: as §1

Eleusine indica (ELEIN) = settings: Eleusine indica, 312 h; post-emergence application, 500 g/Ha, evaluated after 13 days; read-out: Control of weed species ELEIN (100=total damage to plant; 0=no damage to plant)
Method in brief: as §1

[5] = test system: Chenopodium album (CHEAL); settings: Chenopodium album, 312 h; post-emergence application, 500 g/Ha, evaluated after 13 days; read-out: Control of weed species CHEAL (100=total damage to plant; 0=no damage to plant)
Method in brief: as §1

[6] = test system: Digitaria sanguinalis (DIGSA); settings: Digitaria sanguinalis, 312 h; post-emergence application, 500 g/Ha, evaluated after 13 days; read-out: Control of weed species DIGSA (100=total damage to plant; 0=no damage to plant)
Method in brief: as §1

| Structure (SMILES) | pest or weed control at 500 g/ha (Setaria faberi (SETFA)) [%] | pest or weed control at 500 g/ha [1] [%] | pest or weed control at 500 g/ha (Lolium perenne (LOLPE)) [%] | pest or weed control at 500 g/ha [2] [%] | pest or weed control at 500 g/ha [3] [%] | pest or weed control at 500 g/ha [4] [%] | pest or weed control at 500 g/ha (Eleusine indica (ELEIN)) [%] | pest or weed control at 500 g/ha [5] [%] | pest or weed control at 500 g/ha [6] [%] |
| --- | --- | --- | --- | --- | --- | --- | --- | --- | --- |
| CN(CCS(C)(=O)=O)C(=O)c1cc[n+](CCC(=O)O)nc1 [Compound A135] | 100 | 80 | 70 | 80 | 60 | 30 | 40 | 60 | 90 |
| CS(=O)(=O)CCNC(=O)c1cc[n+](CCNS(=O)(=O)[O-])nc1 [Compound A136] | 30 | 60 | 70 | 0 | 50 | 30 | 80 | 100 | 100 |
| CC1(C)CC1NC(=O)c1cc[n+](CCC(=O)O)nc1 (stereo not drawn) [Compound A137] | 70 | 10 | 100 | 100 | 100 | 0 | 100 | 90 | 100 |
| COCCNC(=O)c1cc[n+](CCCOS(=O)(=O)[O-])nc1 [Compound A138] | 80 | 60 | 60 | 30 | 30 | 60 | 60 | 70 | 70 |
| COCCNC(=O)c1cc[n+](CCNS(=O)(=O)[O-])nc1 [Compound A139] | 70 | 80 | 20 | 90 | 70 | 40 | 100 | 100 | 90 |
| C=CCNC(=O)c1cc[n+](CCNS(=O)(=O)[O-])nc1 [Compound A140] | 90 | 90 | 20 | 100 | 70 | 60 | 100 | 100 | 90 |
| C#CCNC(=O)c1cc[n+](CCNS(=O)(=O)[O-])nc1 [Compound A141] | 40 | 60 | 70 | 100 | 40 | 70 | 90 | 100 | 70 |
| O=C(O)CC[n+]1ccc(C(=O)NCCc2nccs2)cn1 [Compound A143] | 80 | 50 | 50 | 100 | 40 | 40 | 100 | 90 | 60 |
| Cn1ncnc1CCNC(=O)c1cc[n+](CCC(=O)O)nc1 [Compound A144] | 90 | 90 | 60 | 100 | 60 | 50 | 100 | 100 | 80 |
| O=C(O)CC[n+]1ccc(C(=O)NCCc2ncccn2)cn1 [Compound A145] | 80 | 0 | 70 | 100 | 60 | 30 | 100 | 100 | 100 |
| O=C(O)CC[n+]1ccc(C(=O)NCc2nccs2)cn1 [Compound A146] | 90 | 20 | 100 | 80 | 100 | 20 | 80 | 80 | 100 |
| Cn1cnc(CNC(=O)c2cc[n+](CCC(=O)O)nc2)n1 [Compound A147] | 80 | 80 | 90 | 100 | 90 | 40 | 90 | 90 | 100 |
| CC1(C)CC(CCNC(=O)c2cc[n+](CCC(=O)O)nc2)=NO1 [Compound A148, 3-[4-[2-(5,5-dimethyl-4H-isoxazol-3-yl)ethylcarbamoyl]pyridazin-1-ium-1-yl]propanoic acid 2,2,2-trifluoroacetate] | 50 | 40 | 30 | 70 | 30 | 30 | 30 | 90 | 80 |
